Data reported in ChEMBL document CHEMBL3885881, “DrugMatrix”.

Organism: Rattus norvegicus
Assay: DrugMatrix - Regimen: Daily Repeat
Assay type: toxicity, organism-based, Sprague-Dawley
Set-up: regimen Daily Repeat, gender Male, age 6-8 weeks
Details: in vivo, po, route oral GAVAGE, vehicle .5 % CMC; for ABSOLUTE BASOPHIL / ABSOLUTE EOSINOPHIL / ABSOLUTE LYMPHOCYTE / ABSOLUTE MONOCYTE / ABSOLUTE SEGMENTED NEUTROPHIL / BASOPHIL / EOSINOPHIL / ERYTHROCYTE COUNT / HEMATOCRIT / HEMOGLOBIN / LEUKOCYTE COUNT / LYMPHOCYTE / MEAN CORPUSCULAR HEMOGLOBIN / MEAN CORPUSCULAR HEMOGLOBIN CONCENTRATION / MEAN CORPUSCULAR VOLUME / MONOCYTE / NEUTROPHIL / NUCLEATED RED BLOOD CELLS / PLATELET COUNT: tissue Blood; for ALANINE AMINOTRANSFERASE / ALBUMIN / ALKALINE PHOSPHATASE / ASPARTATE AMINOTRANSFERASE / BLOOD UREA NITROGEN / CARBON DIOXIDE / CHLORIDE / CHOLESTEROL / CREATINE PHOSPHOKINASE / CREATININE / GLUCOSE / LACTATE DEHYDROGENASE / LIPASE / PHOSPHORUS / POTASSIUM / SODIUM / TOTAL BILIRUBIN / TOTAL PROTEIN / URIC ACID: tissue Plasma
[1] = 80 mg/kg, 72 h, dose level Low, time 3 day
[2] = 80 mg/kg, 120 h, dose level Low, time 5 day
[3] = 1500 mg/kg, 72 h, dose level High, time 3 day
[4] = 1500 mg/kg, 120 h, dose level High, time 5 day

## Cc1cc(=O)n(-c2ccccc2)n1C [ANTIPYRINE]
[1]
  ABSOLUTE BASOPHIL: 0 CELLS/uL
  ABSOLUTE EOSINOPHIL: 91.33 CELLS/uL
  ABSOLUTE LYMPHOCYTE: 12252 CELLS/uL
  ABSOLUTE MONOCYTE: 196 CELLS/uL
  ABSOLUTE SEGMENTED NEUTROPHIL: 1827.33 CELLS/uL
  BASOPHIL: 0%
  EOSINOPHIL: 0.67%
  ERYTHROCYTE COUNT: 5.35 x10E6/uL
  HEMATOCRIT: 34.23%
  HEMOGLOBIN: 13.5 G/DL
  LEUKOCYTE COUNT: 14.37 x10E3/uL
  LYMPHOCYTE: 86%
  MEAN CORPUSCULAR HEMOGLOBIN: 25.27 pg
  MEAN CORPUSCULAR HEMOGLOBIN CONCENTRATION: 39.43 G/DL
  MEAN CORPUSCULAR VOLUME: 64 fL
  MONOCYTE: 1.33%
  NEUTROPHIL: 12%
  NUCLEATED RED BLOOD CELLS: 0.33 /100WBC
  PLATELET COUNT: 1283.67 x10E3/uL
  ALANINE AMINOTRANSFERASE: 47.67 u/L
  ALBUMIN: 4.47 G/DL
  ALKALINE PHOSPHATASE: 419 u/L
  ASPARTATE AMINOTRANSFERASE: 82 u/L
  BLOOD UREA NITROGEN: 18 mg/dL
  CARBON DIOXIDE: 23.33 mmol/L
  CHLORIDE: 103.67 MEQ/L
  CHOLESTEROL: 77 mg/dL
  CREATINE PHOSPHOKINASE: 225 u/L
  CREATININE: 0.22 mg/dL
  GLUCOSE: 163 mg/dL
  LACTATE DEHYDROGENASE: 184 u/L
  LIPASE: 9.67 u/L
  PHOSPHORUS: 13.9 mg/dL
  POTASSIUM: 7.07 MEQ/L
  SODIUM: 147.1 MEQ/L
  TOTAL BILIRUBIN: 0.27 mg/dL
  TOTAL PROTEIN: 6.23 G/DL
  URIC ACID: 1.77 mg/dL
[2]
  ABSOLUTE BASOPHIL: 0 CELLS/uL
  ABSOLUTE EOSINOPHIL: 104 CELLS/uL
  ABSOLUTE LYMPHOCYTE: 12025 CELLS/uL
  ABSOLUTE MONOCYTE: 0 CELLS/uL
  ABSOLUTE SEGMENTED NEUTROPHIL: 871 CELLS/uL
  BASOPHIL: 0%
  EOSINOPHIL: 0.67%
  ERYTHROCYTE COUNT: 5.47 x10E6/uL
  HEMATOCRIT: 35.87%
  HEMOGLOBIN: 13.93 G/DL
  LEUKOCYTE COUNT: 13 x10E3/uL
  LYMPHOCYTE: 92.33%
  MEAN CORPUSCULAR HEMOGLOBIN: 25.53 pg
  MEAN CORPUSCULAR HEMOGLOBIN CONCENTRATION: 38.9 G/DL
  MEAN CORPUSCULAR VOLUME: 65.6 fL
  MONOCYTE: 0%
  NEUTROPHIL: 7%
  NUCLEATED RED BLOOD CELLS: 0.33 /100WBC
  PLATELET COUNT: 1274.33 x10E3/uL
  ALANINE AMINOTRANSFERASE: 48 u/L
  ALBUMIN: 4.27 G/DL
  ALKALINE PHOSPHATASE: 367.33 u/L
  ASPARTATE AMINOTRANSFERASE: 83 u/L
  BLOOD UREA NITROGEN: 15.67 mg/dL
  CARBON DIOXIDE: 26.33 mmol/L
  CHLORIDE: 101 MEQ/L
  CHOLESTEROL: 76.33 mg/dL
  CREATINE PHOSPHOKINASE: 353 u/L
  CREATININE: 0.16 mg/dL
  GLUCOSE: 179.67 mg/dL
  LACTATE DEHYDROGENASE: 147.67 u/L
  LIPASE: 8.67 u/L
  PHOSPHORUS: 12.13 mg/dL
  POTASSIUM: 7.07 MEQ/L
  SODIUM: 141.77 MEQ/L
  TOTAL BILIRUBIN: 0.13 mg/dL
  TOTAL PROTEIN: 5.97 G/DL
  URIC ACID: 2.27 mg/dL
[3]
  ABSOLUTE BASOPHIL: 0 CELLS/uL
  ABSOLUTE EOSINOPHIL: 55 CELLS/uL
  ABSOLUTE LYMPHOCYTE: 14551 CELLS/uL
  ABSOLUTE MONOCYTE: 220 CELLS/uL
  ABSOLUTE SEGMENTED NEUTROPHIL: 1207.33 CELLS/uL
  BASOPHIL: 0%
  EOSINOPHIL: 0.33%
  ERYTHROCYTE COUNT: 5.53 x10E6/uL
  HEMATOCRIT: 35.67%
  HEMOGLOBIN: 14.13 G/DL
  LEUKOCYTE COUNT: 16.03 x10E3/uL
  LYMPHOCYTE: 90.67%
  MEAN CORPUSCULAR HEMOGLOBIN: 25.6 pg
  MEAN CORPUSCULAR HEMOGLOBIN CONCENTRATION: 39.63 G/DL
  MEAN CORPUSCULAR VOLUME: 64.5 fL
  MONOCYTE: 1.33%
  NEUTROPHIL: 7.67%
  NUCLEATED RED BLOOD CELLS: 0.33 /100WBC
  PLATELET COUNT: 1257 x10E3/uL
  ALANINE AMINOTRANSFERASE: 71 u/L
  ALBUMIN: 4.27 G/DL
  ALKALINE PHOSPHATASE: 404.67 u/L
  ASPARTATE AMINOTRANSFERASE: 85 u/L
  BLOOD UREA NITROGEN: 14 mg/dL
  CARBON DIOXIDE: 37 mmol/L
  CHLORIDE: 99.33 MEQ/L
  CHOLESTEROL: 76 mg/dL
  CREATINE PHOSPHOKINASE: 183.33 u/L
  CREATININE: 0.17 mg/dL
  GLUCOSE: 141.67 mg/dL
  LACTATE DEHYDROGENASE: 103.33 u/L
  LIPASE: 9.67 u/L
  PHOSPHORUS: 10.07 mg/dL
  POTASSIUM: 6.57 MEQ/L
  SODIUM: 143.77 MEQ/L
  TOTAL BILIRUBIN: 0.2 mg/dL
  TOTAL PROTEIN: 5.83 G/DL
  URIC ACID: 1.53 mg/dL
[4]
  ABSOLUTE BASOPHIL: 0 CELLS/uL
  ABSOLUTE EOSINOPHIL: 0 CELLS/uL
  ABSOLUTE LYMPHOCYTE: 19193.67 CELLS/uL
  ABSOLUTE MONOCYTE: 792.67 CELLS/uL
  ABSOLUTE SEGMENTED NEUTROPHIL: 3680.33 CELLS/uL
  BASOPHIL: 0%
  EOSINOPHIL: 0%
  ERYTHROCYTE COUNT: 5.35 x10E6/uL
  HEMATOCRIT: 35.1%
  HEMOGLOBIN: 14.13 G/DL
  LEUKOCYTE COUNT: 23.67 x10E3/uL
  LYMPHOCYTE: 81.33%
  MEAN CORPUSCULAR HEMOGLOBIN: 26.43 pg
  MEAN CORPUSCULAR HEMOGLOBIN CONCENTRATION: 40.27 G/DL
  MEAN CORPUSCULAR VOLUME: 65.7 fL
  MONOCYTE: 3.67%
  NEUTROPHIL: 15%
  NUCLEATED RED BLOOD CELLS: 0.33 /100WBC
  PLATELET COUNT: 1282 x10E3/uL
  ALANINE AMINOTRANSFERASE: 57.67 u/L
  ALBUMIN: 4.27 G/DL
  ALKALINE PHOSPHATASE: 338.33 u/L
  ASPARTATE AMINOTRANSFERASE: 86 u/L
  BLOOD UREA NITROGEN: 16.33 mg/dL
  CARBON DIOXIDE: 36 mmol/L
  CHLORIDE: 103 MEQ/L
  CHOLESTEROL: 72.33 mg/dL
  CREATINE PHOSPHOKINASE: 309 u/L
  CREATININE: 0.24 mg/dL
  GLUCOSE: 135 mg/dL
  LACTATE DEHYDROGENASE: 379.67 u/L
  LIPASE: 10 u/L
  PHOSPHORUS: 10.8 mg/dL
  POTASSIUM: 7.71 MEQ/L
  SODIUM: 141.33 MEQ/L
  TOTAL BILIRUBIN: 0.2 mg/dL
  TOTAL PROTEIN: 5.9 G/DL
  URIC ACID: 1.2 mg/dL
